Patent US8512695B2 (priority 2008, dated 2013)
Where two headings read alike, the source gives them in different places.

What was measured:
fat grafts [1] = assay type: in vivo
Method: (§1) Fat Processing. Lipoaspirate was taken directly from the operating room. It was separated into 30 cc aliquots, and washed once with an equal volume of normal saline to remove blood and cellular debris. Afterwards, the tubes were centrifuged at 200G and the middle layer was separated and treated with various agents. These agents were treated in 30 cc washes, with 30 cc of fat for 30 minutes at 37° C. This incubation was chosen to minimize ischemic time while allowing for sufficient mixing with treatment agents. Following incubation and washing, the fat was again centrifuged at 200G. The middle fat layer was again separated and placed in 1.0 cc, 1.0 g aliquots for injection into the flanks of nude mice. […] Fat was engrafted into animals within two hours of collection from the operating room in order to minimize warm ischemia time.
Experimental Model. Nude mice were implanted with 1.0 cc/1.0 g (+/−0.01 gm) fat grafts in a single lobule. […]
Initially, the lobules were explanted daily and measured for weight and apoptotic activity. […] Additionally these samples were weighed, sent for histology, and measured for DNA content. […]
Each experiment consisted of an early group and a late group of mice. […] Once an animal was euthanized, both lobules were collected analyzed, and the animal was removed from the study.

fat grafts [2] = experiment: Weight / reabsorption by weight of 1.0 cc/1.0 g fat grafts; assay type: in vivo, nude mice
Method: as §1
Each experiment consisted of an early group and a late group of mice. […] For the early time points two animals were euthanized on each sampling day for each group (n=4 lobules per each early time point). Additionally, animals from these same groups were then euthanized at six weeks for examination of late endpoints (8 animals generating 16 lobules were used for each group of late time points). Once an animal was euthanized, both lobules were collected analyzed, and the animal was removed from the study.

adipocytes of fat grafts = experiment: Apoptosis quantification in explanted fat grafts (Mito-PT / Apo-One fluorescent labels, plate reader); assay type: in vivo; settings: for apoptosis level (words): early engraftment period, first ten days
Method: Apoptosis Identification. Immunochemistry apoptosis specific fluorescent labels FLIVO™ and MT Mito™ were used to identify apoptosis in adipocytes. Fat grafts were explanted, treated with Blendzyme (Roche Applied Science Liberase Blendzyme 3) at 38° C. for 20 minutes, and passed through a 100 micron cell strainer (to remove extra-cellular stromal elements left behind after digestion). These cells were then incubated for one hour at 38° C., and washed once following labeling. Afterwards these cells were placed into 96 well black plates, and read on a plate reader (Molecular Devices, SpectraMax M2) at their dye-specific emission and excitation wavelengths (FLIVO-red ex 565/em>590, MITO-PT ex 488/em green 530, red 590).
Fat Processing. Lipoaspirate was taken directly from the operating room. It was separated into 30 cc aliquots, and washed once with an equal volume of normal saline to remove blood and cellular debris. Afterwards, the tubes were centrifuged at 200G and the middle layer was separated and treated with various agents. These agents were treated in 30 cc washes, with 30 cc of fat for 30 minutes at 37° C. This incubation was chosen to minimize ischemic time while allowing for sufficient mixing with treatment agents. Following incubation and washing, the fat was again centrifuged at 200G. The middle fat layer was again separated and placed in 1.0 cc, 1.0 g aliquots for injection into the flanks of nude mice. This was performed under IRB approval for use of de-identified discarded tissue. Of note, the harvesting cannulas and harvesting pressures varied case by case and surgeon by surgeon. Fat was engrafted into animals within two hours of collection from the operating room in order to minimize warm ischemia time.
Experimental Model. Nude mice were implanted with 1.0 cc/1.0 g (+/−0.01 gm) fat grafts in a single lobule. These mice were injected with a 14 gauge angio-catheter to simulate a clinically relevant 1 cc injection. Two lobules were implanted into bilateral flanks of each nude mouse used in the study. The 14 gauge angio-catheter was chosen to minimize fat graft trauma during injection. Many clinicians use 16 and 14 gauge catheters currently for fat grafting, thus this size catheter was used to approximate clinical practice.
Initially, the lobules were explanted daily and measured for weight and apoptotic activity. After early curves were generated, lobules were explanted on days 3, 6, and 9, for the primary measurement of apoptosis levels. Additionally these samples were weighed, sent for histology, and measured for DNA content. Endpoints in the first ten days were compared to endpoints at six weeks to determine whether graft performance can be accurately predicted by early apoptosis and cell death.
Each experiment consisted of an early group and a late group of mice. Each group was injected with the same fat from a single patient on a single day. For the early time points two animals were euthanized on each sampling day for each group (n=4 lobules per each early time point). Additionally, animals from these same groups were then euthanized at six weeks for examination of late endpoints (8 animals generating 16 lobules were used for each group of late time points). Once an animal was euthanized, both lobules were collected analyzed, and the animal was removed from the study.
Apoptosis Quantification. Initially, lobules were explanted daily and measured for levels of apoptosis using Mito-PT. After daily testing, it was noted that peak levels of apoptosis occurred between days 5-7, and then trended back down. These values fell approximately in a bell shaped curve. Once this curve was determined, subsequent samples were tested on days 0, 3, 6, and 9, for a sampling of early apoptosis (see FIG. 7).

[3] = agents tested for potential additive effects with P188, saline in this group 0.74 g
[4] = Day 3, comparison experiments of FIG. 8
[5] = Day 6, comparison experiments of FIG. 8

Oc1ccc(C=Cc2cc(O)cc(O)c2)cc1 [resveratrol]
overall effect on / toxicity to fat grafts (fat grafts [1]; mouse, in vivo): toxic | weight at six weeks (fat grafts [2]; [3]): 0.73 ± 0.03 g

Phosphatidylcholine [PC]
apoptosis level (adipocytes of fat grafts; [4]): 52,000 RFUs | apoptosis level (words) (adipocytes of fat grafts; listed as Phosphatidylcholine): elevated levels of apoptosis compared to P188 | apoptosis level (words) (adipocytes of fat grafts; listed as phosphatidylcholine): some protective effect, but not to the same magnitude as P188

CC(C)CCC[C@@H](C)[C@H]1CC[C@H]2[C@@H]3CC=C4C[C@@H](O)CC[C@]4(C)[C@H]3CC[C@]12C [cholesterol]
overall effect on / toxicity to fat grafts (fat grafts [1]; conclusion over early and late endpoints): toxic | weight at six weeks (fat grafts [2]; [3]): 0.73 ± 0.04 g

CCCCCCCCCCCCCCCC[N+](C)(C)C.[Br-] [HCTA, Hexadecyltrimethylammonium bromide]
apoptosis level (adipocytes of fat grafts; [4]): 31,076 RFUs | apoptosis level (adipocytes of fat grafts; [5]): 41,037 RFUs | apoptosis level (words) (adipocytes of fat grafts): higher levels of apoptosis than normal saline controls at earlier time points

CCCCCCCCCCCCCCCC[N+](C)(C)C.[Cl-] [CTA, cetyltrimethylammonium chloride]
apoptosis level (adipocytes of fat grafts; [4]): 35,338 RFUs | apoptosis level (adipocytes of fat grafts; [5]): 35,338 RFUs | apoptosis level (words) (adipocytes of fat grafts): higher levels of apoptosis than normal saline controls at earlier time points

O=C1O[C@H]([C@@H](O)CO)C(O)=C1O [vitamin C, ascorbic acid]
apoptosis level (words) (adipocytes of fat grafts): high levels of apoptosis

O=C(O)CCCC[C@@H]1CCSS1 (racemic) [lipoic acid]
weight at six weeks (fat grafts [2]; 1.0 cc/1.0 g graft implanted, six weeks): 0.65 ± 0.09 g | reabsorption by weight (fat grafts [2]; six weeks): statistically significant differences in reabsorption | apoptosis level (words) (adipocytes of fat grafts): decreased apoptosis during the engraftment period when compared to saline treated controls
